Laboratory results as given in patent US9546151B2, “VMAT inhibitory compounds” (Oregon Health & Science University, priority 2014, dated 2017).
Like-named read-outs stand apart in the source and are kept apart here.

Tests used:
human 5HT1A receptor = target: T1, human 5HT1A receptor (Homo sapiens, UniProt P08908); assay: h5HT1A receptors: [3H]8-OH-DPAT binding; details: cells printed in μM under a head in nM; read-out: 5-HT1A [^3H] 8—OH DPAT Ki(nM) ± SEM
T1 construct: expressed in transfected cells; host or cells: HEK cells (G418 selection)
T1 sequence (P08908 1-422): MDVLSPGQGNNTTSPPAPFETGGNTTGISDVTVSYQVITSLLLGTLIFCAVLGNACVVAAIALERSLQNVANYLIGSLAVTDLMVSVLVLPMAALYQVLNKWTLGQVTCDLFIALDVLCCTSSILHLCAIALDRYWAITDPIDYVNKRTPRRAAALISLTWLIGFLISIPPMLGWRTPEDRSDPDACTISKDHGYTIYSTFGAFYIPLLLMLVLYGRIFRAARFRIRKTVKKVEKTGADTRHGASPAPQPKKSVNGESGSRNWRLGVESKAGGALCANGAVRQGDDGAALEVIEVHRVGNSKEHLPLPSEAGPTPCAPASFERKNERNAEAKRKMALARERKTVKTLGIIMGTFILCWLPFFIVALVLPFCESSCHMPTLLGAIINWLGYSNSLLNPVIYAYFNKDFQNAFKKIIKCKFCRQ
Experimental: Human embryonic kidney cells expressing the human 5HT1A receptor (HEK-h5HT1A) were used. The cells were grown to confluence in DMEM containing 10% FetalClone® (abbreviated as FC—source: HyClone), 0.05% penicillin-streptomycin (pen-strep), and 300 μg/mL of Geneticin (G418). The cells were scraped from 150 mm plates into phosphate-buffered saline and centrifuged at 270×g, 1200 rpm, for 10 minutes. The cell pellet was homogenized in 50 mM Tris-HCl (pH 7.7) with a Polytron, and centrifuged at 27,000×g. […] The final pellet was resuspended at 0.5 mg protein/mL in assay buffer (25 mM Tris-HCl, pH 7.4, containing 100 μM ascorbic acid and 10 μM pargyline). The assay was performed in duplicate in a 96-well plate. Serial dilutions of test compounds were made using the Biomek 2000 robotics system. […] Nonspecific binding was determined with 1.0 μM dihydroergotamine. The plates were incubated at room temperature for 60 minutes and then filtered through polyethylenimine-soaked (0.05%) “A” filtermats on a Tomtec cell harvester. The filters were washed with cold 50 mM Tris buffer (pH 7.7) for 6 sec, dried, spotted with scintillation cocktail, and counted for 2 minutes after a 4 hour delay on a Wallac Betaplate 1205 liquid scintillation counter.

human 5HT2A receptor = target: T2, human 5HT2A receptor (Homo sapiens, UniProt P28223); assay: h5HT2A receptors: [125I]DOI binding; details: read-out: 5-HT2A [^125I]DOI Ki (nM) ± SEM
T2 construct: expressed in transfected cells; host or cells: HEK cells
Experimental: Method: Human embryonic kidney cells expressing the human 5HT2A receptor (HEK-h5HT2A) or human 5HT2C receptor (HEK-h5HT2C) were used. The cells were grown until confluent on 15 cm plates. Media was removed, cells were washed with phosphate-buffered saline (PBS), scraped into 2 ml PBS and frozen at −20° C. until needed. Cell suspension was thawed, 10 ml assay buffer (50 mM Tris, pH 7.4 at 37° C., with 0.1% ascorbic acid and 5 mM CaCl2) was added per plate of cells, and polytronned at setting 6 for 5 sec. The homogenate was centrifuged at 15,500 rpm for 20 min. […] The final pellet was resuspended in 2 ml buffer/plate of cells.
The reaction was incubated for 1 hour at 37° C., and terminated by filtration through Wallac A filtermats presoaked in 0.05% polyethylenimine using a Tomtec 96-well harvester. Radioactivity remaining on filters was counted in a Wallac betaplate reader. IC50 values were calculated using GraphPad Prism. IC50 values were converted using the Cheng-Prusoff equation.

VMAT2 [1] = target: T3, VMAT2 (Homo sapiens, UniProt Q05940); assay: hVMAT2 [3H]DTBZ ([3H]DHTB) binding assay; design: expressed in transfected cells; host or cells: HEK (human embryonic kidney) cells
Experimental: (§1) Membrane preparation for binding, uptake and release assays using HEK-hVMAT2 cells: Human embryonic kidney cells expressing the human vesicular monoamine transporter 2 (HEK-hVMAT2) were used. HEK-hVMAT2 cells were grown until confluent. The media was removed from plates, solution A [sucrose (0.32 M) with protease inhibitors] was added to the plate, and cells were scraped from plate. Cells were homogenized with 12 strokes of a glass/glass homogenizer. The homogenate was centrifuged at 800×g for 10 min. The supernatant was removed and saved, and the pellet was resuspended, homogenized and centrifuged as above. The supernatants were combined and centrifuged at 10,000×g for 20 min. The pellet was resuspended in solution A (0.75 ml). The membranes were osmotically shocked by addition of 2.625 ml ice cold water and homogenized by 5 strokes of a glass/Teflon homogenizer. The osmolarity was reestablished with addition of Tris (338 μl, 0.25M, pH 7.4 at 4° C.), sodium potassium tartrate (338 μl, 1.0 M), and MgSO4 (4 μl, 0.9M). The homogenate was centrifuged at 20,000×g for 20 min.
Binding was terminated by filtration over Whatman GF/C filters using a Tomtec 96-well cell harvester. Filters were washed for six seconds with ice-cold saline. Scintillation fluid was added to each square and radioactivity remaining on the filters was determined using a Wallac μ- or beta-plate reader. Specific binding was defined as the difference in binding observed in the presence and absence of Ro4-1284 (10 μM, generously supplied by Hoffman LaRoche). Three or more independent competition experiments were conducted with duplicate determinations.

VMAT2 [2] = target: T3, VMAT2; assay: hVMAT2 5HT Uptake; assay type: biochemical; design: expressed in transfected cells; host or cells: HEK (human embryonic kidney) cells
Experimental: as §1

[3] = [^3H]5HT uptake, HEK-hVMAT2 preparation, read-out: hVMAT2 5HT Uptake IC50 (nM) ± SEM
[4] = cells printed in μM under a head in nM
[5] = cells printed in μM under a head in nM, HEK-hVMAT2 membranes

T2 sequence (P28223 whole entry): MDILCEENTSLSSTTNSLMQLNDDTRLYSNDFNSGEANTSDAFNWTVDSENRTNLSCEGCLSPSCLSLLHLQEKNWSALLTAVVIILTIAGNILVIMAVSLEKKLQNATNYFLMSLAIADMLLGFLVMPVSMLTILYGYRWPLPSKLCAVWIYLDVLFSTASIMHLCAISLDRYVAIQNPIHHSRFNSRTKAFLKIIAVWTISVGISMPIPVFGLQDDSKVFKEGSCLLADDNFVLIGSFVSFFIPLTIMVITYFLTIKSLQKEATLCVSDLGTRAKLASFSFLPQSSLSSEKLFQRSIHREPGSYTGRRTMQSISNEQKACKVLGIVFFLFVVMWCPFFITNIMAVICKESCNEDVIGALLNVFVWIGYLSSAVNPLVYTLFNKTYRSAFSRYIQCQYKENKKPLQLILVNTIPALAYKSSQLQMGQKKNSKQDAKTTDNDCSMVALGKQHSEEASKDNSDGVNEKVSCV
T3 sequence (Q05940 whole entry): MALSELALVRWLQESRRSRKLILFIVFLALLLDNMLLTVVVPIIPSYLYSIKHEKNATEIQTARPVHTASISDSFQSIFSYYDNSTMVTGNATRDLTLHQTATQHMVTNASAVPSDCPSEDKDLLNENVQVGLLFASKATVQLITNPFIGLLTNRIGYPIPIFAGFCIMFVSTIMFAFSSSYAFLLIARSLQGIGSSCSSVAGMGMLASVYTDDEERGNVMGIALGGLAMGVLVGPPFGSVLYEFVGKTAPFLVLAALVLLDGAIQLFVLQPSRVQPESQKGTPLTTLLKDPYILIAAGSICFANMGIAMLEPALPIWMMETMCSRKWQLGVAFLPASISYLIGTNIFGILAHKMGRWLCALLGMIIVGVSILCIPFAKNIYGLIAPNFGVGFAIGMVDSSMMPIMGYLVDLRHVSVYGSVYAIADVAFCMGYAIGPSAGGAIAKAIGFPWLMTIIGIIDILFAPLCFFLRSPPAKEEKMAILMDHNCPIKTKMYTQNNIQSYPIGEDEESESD

Ki (human 5HT1A receptor) [µM]	Ki (VMAT2 [1]) [µM]	IC50 (VMAT2 [2]; [3]) [nM]	Ki (human 5HT2A receptor; [4]) [nM]	Ki (VMAT2 [1]; [5]) [µM]	melting point [°C]	IC50 (VMAT2 [2]) [nM]	SMILES	Ki (human 5HT2A receptor; HEK-h5HT2A homogenate) [nM]	IC50 (VMAT2 [2]; cells printed in μM under a head in nM, read-out: hVMAT2 5HT Uptake IC50 (nM) ± SEM) [nM]
> 9	–	–	> 2000	–	–	–	CCOC(=O)[C@@H]1CN(CCn2c(=O)[nH]c3ccccc3c2=O)CC[C@@H]1c1ccc(F)cc1 (racemic) [Compound 5d, (±) syn-ethyl 1-(2-(2,4-dioxo-1,2-dihydroquinazolin-3(4H)-yl)ethyl)-4-(4-fluorophenyl)piperidine-3-carboxylate]	–	–
> 10	–	–	> 10000	–	–	–	CCOC(=O)c1ccc([C@H]2CCN(CCn3c(=O)[nH]c4ccccc4c3=O)C[C@H]2C(=O)OCC)cc1 (racemic) [Compound 5l, (±) syn-ethyl 1-(2-(2,4-dioxo-1,2-dihydroquinazolin-3(4H)-yl)ethyl)-4-(4-(ethoxycarbonyl)phenyl)piperidine-3-carboxylate]	–	–
> 10	–	89 ± 12	–	> 9	101.2 to 102.5	–	CCOC(=O)[C@@H]1CN(CCn2c(=O)c3ccccc3n(C)c2=O)CC[C@@H]1c1cccc(F)c1 (racemic) [Compound 6d, (±)-syn Ethyl 4-(3-fluorophenyl)-1-(2-(1-methyl-2,4-dioxo-1,2-dihydroquinazolin-3(4H)-yl)ethyl)piperidine-3-carboxylate]	–	–
–	–	200 ± 51	–	> 10	153.3 to 155.1	–	CCOC(=O)[C@@H]1CN(CCn2c(=O)[nH]c3sccc3c2=O)CC[C@@H]1c1cccc(F)c1 (racemic) [Compound 7b, (±) syn-ethyl 1-(2-(2,4-dioxo-1,2-dihydrothieno[2,3-d]pyrimidin-3(4H)-yl)ethyl)-4-(3-fluorophenyl)piperidine-3-carboxylate]	–	–
–	–	1470 ± 65	–	> 10	190.3 to 191.5	–	CCOC(=O)[C@@H]1CN(CCn2c(=O)[nH]c3sccc3c2=O)CC[C@@H]1c1ccc(C(F)(F)F)cc1 (racemic) [Compound 7c, (±) syn-ethyl 1-(2-(2,4-dioxo-1,2-dihydrothieno[2,3-d]pyrimidin-3(4H)-yl)ethyl)-4-(4-(trifluoromethyl)phenyl)piperidine-3-carboxylate]	–	–
> 10	> 10	–	–	–	171.8 to 172.4	43 ± 4	CCOC(=O)[C@H]1CN(CCCn2c(=O)[nH]c3ccccc3c2=O)CC[C@H]1c1ccc(F)cc1 (racemic) [n=2, (±)-syn-Ethyl 1-(3-(2,4-dioxo-1,2-dihydroquinazolin-3(4H)-yl)propyl)-4-(4-fluorophenyl)piperidine-3-carboxylate]	–	–
–	> 10	–	–	–	148.5 to 149.7	133 ± 52	CCOC(=O)[C@H]1CN(CCCCn2c(=O)[nH]c3ccccc3c2=O)CC[C@H]1c1ccc(F)cc1 (racemic) [n=3, (±)-syn-Ethyl 1-(4-(2,4-dioxo-1,2-dihydroquinazolin-3(4H)-yl)butyl)-4-(4-fluorophenyl)piperidine-3-carboxylate]	–	–
–	–	342 ± 103	–	> 10	153.5 to 156.5	–	CCOC(=O)[C@@H]1CN(CCn2c(=O)[nH]c3sccc3c2=O)CC[C@@H]1c1cccc(C(F)(F)F)c1 (relative stereo) [Compound 7d, syn-ethyl 1-(2-(2,4-dioxo-1,2-dihydrothieno[2,3-d]pyrimidin-3(4H)-yl)ethyl)-4-(3-(trifluoromethyl)phenyl)piperidine-3-carboxylate]	–	–

SMILES	Ki (human 5HT1A receptor) [µM]	Ki (VMAT2 [1]) [µM]	IC50 (VMAT2 [2]; [3]) [nM]	Ki (human 5HT2A receptor; [4]) [nM]	Ki (VMAT2 [1]; [5]) [µM]	melting point [°C]	IC50 (VMAT2 [2]) [nM]	Ki (human 5HT2A receptor; HEK-h5HT2A homogenate) [nM]	IC50 (VMAT2 [2]; cells printed in μM under a head in nM, read-out: hVMAT2 5HT Uptake IC50 (nM) ± SEM) [nM]
CCOC(=O)[C@@H]1CN(CCn2c(=O)[nH]c3ccccc3c2=O)CC[C@@H]1c1ccccc1 (racemic) [Compound 5a, (±) syn-ethyl 1-(2-(2,4-dioxo-1,2-dihydroquinazolin-3(4H)-yl)ethyl)-4-phenylpiperidine-3-carboxylate]	> 10	1.17 ± 0.314	17	–	–	–	–	37.3 ± 8.5	–
CCOC(=O)[C@H]1CN(CCn2c(=O)[nH]c3ccccc3c2=O)CC[C@H]1c1cccc(N(C)C)c1 (racemic) [Compound 5aa, (±)-syn-Ethyl 4-(3-(dimethylamino)phenyl)-1-(2-(2,4-dioxo-1,2-dihydroquinazolin-3(4H),-yl)ethyl) piperidine-3-carboxylate]	> 10	–	–	> 10000	> 10	–	–	–	> 5000
